Source: article PMC4589318, “Synthesis of Triazole Schiff’s Base Derivatives and Their Inhibitory Kinetics on Tyrosinase Activity” (PLoS ONE, 2015)

Tests used:
[1] = ABTS free-radical scavenging antioxidant assay; settings: absorbance at 734 nm
Procedure: ABTS free-radical scavenging assay was used to test the antioxidant capacity of compounds Y1 to Y4. The method can be found in many articles. 7 mM ABTS and 2.45 mM ammonium persulfate were blended and stored in a dark place 16 hours, and then diluted by 80% ethanol to obtain the working solution which gave an absorbance of 0.69 at 734 nm. The working solution and compounds were mixed and allowed to react for ten minutes, and then measured the absorbance at 734 nm (AI) was measured using spectrophotometer. L-ascorbic acid and 80% ethanol was used as a positive and blank control, respectively. The A0 value was the blank absorbance. The antioxidant rate (%) = (A0-AI)/A0 * 100%

mushroom tyrosinase = mushroom tyrosinase (Agaricus bisporus, UniProt C7FF04); test: Diphenolase activity of mushroom tyrosinase (L-DOPA substrate); assay type: biochemical; settings: for Inhibition type: Lineweaver-Burk plots; for Inhibition type / KIS (inhibitor bonding with enzyme-substrate complex) / K IS (Table 1) / Inhibitory mechanisms: diphenolase; for KIS (inhibitor bonding with enzyme-substrate complex) / K IS (Table 1): L-DOPA; for KIS (inhibitor bonding with enzyme-substrate complex): secondary plot of intercepts; for K IS (Table 1): unit not given; for Inhibitory mechanisms: residual activity vs enzyme concentration
Procedure: L-Tyr and L-DOPA were used as the substrate to test the monophenolase and diphenolase activities of tyrosinase, respectively. The reaction system (3 ml) contained 1.1 mM L-Tyr or 0.5 mM L-DOPA, 25 mM PBS buffer (pH 6.8) and different concentrations of the inhbitors. For monophenolase and diphenolase activities, the final concentration of tyrosinase was 33.3μg/ml and 6μg/ml, respectively. The increased optical density with the oxidation of the substrates at 475 nm (the absorption coefficient was 3700 M^−1cm^−1) within a certain time were measured by DU800 spectrophotometer. […] The Michaelis-Menten constant Km of tyrosinase was determined by Lineweaver-Burk plot with different concentrations of L-DOPA as substrate and the inhibition constants KI and KIS were determined by the secondary plots of the apparent Km/Vm or 1/Vm versus the concentration of the inhibitors. The inhibition mechanism was reflected by the […] with various concentrations of mushroom tyrosinase.

tyrosinase = target: T1, tyrosinase (Agaricus bisporus, UniProt C7FF04); test: Fluorescence quenching of tyrosinase; assay type: binding, mushroom; settings: 0.3 mg/ml tyrosinase, excitation 280 nm, inhibitor 10 to 70 μM
T1 construct: purchased Sigma Chemical Co. (St. Louis, MO, USA); host or cells: mushroom (natural source)
Procedure: Fluorescence quenching means the decrease of fluorescence intensity between the fluorescent molecules and solute molecules. This method was usually used to study the interaction between conformation of protein molecules and small molecules. Cary Eclipse fluorescence spectrophotometer was used to record the fluorescence intensities with an excitation wavelength of 280 nm and emission slit widths of 5 nm. […] In this study, the inhibitor was added in 0.3 mg/ml tyrosinase solution to detect the fluorescence intensity changes and the final concentrations of inhibitor range from 10 to 70 μM.
Fluorescence quenching can be divided into static quenching and dynamic quenching. Dynamic quenching is a process, which has energy or electron transfer, while the static quenching process will generate complexes without fluorescence. The quenching rate between the fluorescent molecules and quenching agents followed the Stem.Volmer curve equation [43]: F0/F=1+KSV[Q]
In the formula, F0 is the intensity of fluorescence without quenching agent, F is the fluorescence intensity after adding quencher, Ksv (L/mol) represents the relationship of dynamic equilibrium between biological macromolecules and fluorescence quencher molecules after diffusing and colliding, and [Q] is the concentration of quencher. From Fig 4D, the Ksv of Y1, Y2 and Y3 was determined to be 94437, 7160983 and 159186 L/mol, respectively.

Chain of mushroom tyrosinase (C7FF04 1-392): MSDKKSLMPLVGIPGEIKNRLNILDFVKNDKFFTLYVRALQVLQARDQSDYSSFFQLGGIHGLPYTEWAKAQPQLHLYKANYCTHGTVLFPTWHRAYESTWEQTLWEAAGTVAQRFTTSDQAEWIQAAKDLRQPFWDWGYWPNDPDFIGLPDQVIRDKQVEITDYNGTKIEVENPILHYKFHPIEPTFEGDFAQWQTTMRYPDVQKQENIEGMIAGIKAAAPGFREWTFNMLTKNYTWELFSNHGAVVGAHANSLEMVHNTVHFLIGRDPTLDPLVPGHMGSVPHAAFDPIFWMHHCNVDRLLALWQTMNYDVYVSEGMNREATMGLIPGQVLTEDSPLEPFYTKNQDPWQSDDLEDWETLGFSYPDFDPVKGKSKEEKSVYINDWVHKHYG
T1 sequence (C7FF04 1-392 limits assumed): as the sequence (C7FF04 1-392) above

Inhibition type (mushroom tyrosinase) | KIS (inhibitor bonding with enzyme-substrate complex) (mushroom tyrosinase) [µM] | K IS (Table 1) (mushroom tyrosinase) | Inhibitory mechanisms (mushroom tyrosinase) | Ksv (Stern-Volmer quenching constant) (tyrosinase) [L/mol] | Structure (SMILES) | antioxidant capacity rank order [1] | antityrosinase activity (diphenolase screen) (mushroom tyrosinase; L-DOPA substrate)
Mixed | 27.8 | 28 | Reversible | – | Nn1c(S)nnc1N/N=C\c1cccc(O)c1 [Compound Y2, (Z)-3-((2-(4-amino-5-mercapto-4H-1,2,4-triazol-3-yl)hydrazono)methyl)phenol] | Y1 > Y2 > Y3 > Y4 > Vc > AHMZ | –
Mixed | 21.04 | 21.04 | Reversible | 159186 | Nn1c(S)nnc1N/N=C\c1ccccc1O [Compound Y3, (Z)-2-((2-(4-amino-5-mercapto-4H-1,2,4-triazol-3-yl)hydrazono)methyl)phenol] | Y1 > Y2 > Y3 > Y4 > Vc > AHMZ | –
Mixed | 4 | 4 | Reversible | 94437 | Nn1c(S)nnc1N/N=C\c1cccc(F)c1 [Compound Y1, (Z)-4-amino-5-(2-(3-fluorobenzylidene)hydrazinyl)-4H-1,2,4-triazole-3-thiol] | Y1 > Y2 > Y3 > Y4 > Vc > AHMZ | –

More lines, now with the values behind:

Structure (SMILES) | Inhibition type (mushroom tyrosinase) | KIS (inhibitor bonding with enzyme-substrate complex) (mushroom tyrosinase) [µM] | K IS (Table 1) (mushroom tyrosinase) | Inhibitory mechanisms (mushroom tyrosinase) | Ksv (Stern-Volmer quenching constant) (tyrosinase) [L/mol] | antioxidant capacity rank order [1] | antityrosinase activity (diphenolase screen) (mushroom tyrosinase; L-DOPA substrate)
NNc1nnc(S)n1N [AHMZ, 4-Amino-3-hydrazino-5-mercapto-1,2,4-triazole, reference compound] | – | – | – | – | – | Y1 > Y2 > Y3 > Y4 > Vc > AHMZ | –
Oc1cccc(/C=N\Nc2nnc(S)n2/N=C/c2cccc(O)c2)c1 [Compound Y4, 3-((Z)-(2-(4-(((E)-3-hydroxybenzylidene)amino)-5-mercapto-4H-1,2,4-triazol-3-yl)hydrazono)methyl)phenol] | – | – | – | – | – | Y1 > Y2 > Y3 > Y4 > Vc > AHMZ | almost do not have antityrosinase activity
O=C1O[C@H]([C@@H](O)CO)C(O)=C1O [Vc, L-ascorbic acid, reference compound] | – | – | – | – | – | Y1 > Y2 > Y3 > Y4 > Vc > AHMZ | –
